COC1=C(OC)C(=O)C(C/C=C(\C)CC/C=C(\C)CC/C=C(\C)CC/C=C(\C)CC/C=C(\C)CC/C=C(\C)CC/C=C(\C)CC/C=C(\C)CC/C=C(\C)CCC=C(C)C)=C(C)C1=O
solubility (mole fraction)
Conditions	in ethanol	in ethyl acetate	in isopropanol	in n-butanol	in n-hexane	in n-propanol
270.15 K	1e-05	0.0006	7e-06	1e-05	0.0009	–
280.15 K	1.1e-05	0.0033	8e-06	1.7e-05	0.0044	0.0002
290.15 K	1.6e-05	0.0178	6.2e-05	0.0001	0.0207	0.0005
300.15 K	6.1e-05	0.09	0.0005	0.0011	0.0931	0.0014
310.15 K	0.0002	0.431	0.0029	0.0107	0.399	0.0039
320.15 K	0.0014	0.647	0.0165	0.0934	0.55	0.011

Reference: BigSolDB 2.1
